Source: patent US10239957B2, “Peptide containing conjugates for dual molecular delivery of oligonucleotides” (Merck Sharp & Dohme Corp., priority 2013, dated 2019)
In the oligonucleotide strings, read from the 5' end, every base follows the letter of its sugar. An asterisk marks phosphorothioate; unmarked linkages are phosphodiester. Other units and linkages are bracketed, terminal groups are in braces. A string of capitals states the bases alone. Where no end group is shown, it is not given here. [ ]: non-standard residue; d: D form. {NH2C6-invAb} = cap: inverted abasic residue carrying an aminohexyl phosphate (attachment handle); [invAb] = inverted abasic unit; TGN = not defined here; m = 2'-O-methyl; f = 2'-fluoro

Legend:
[1] = tested on: CTNNB1; experiment: In vivo evaluation in mice: liver mRNA knockdown measurement; conditions: for In vivo mRNA knockdown: mice
Protocol: (§1) Female CD-1 mice (Charles River) were injected in accordance with either a sequential dosing paradigm or a co-dosing paradigm. In the sequential dosing paradigm, the targeted siRNA (SCE) is dosed at t=0 and the targeted peptide is separately dosed up to 2 hr before the SCE (−2 hr) or up to 24 hr after the SCE (+24 hr). In the co-dosing paradigm, the SCE and peptides are co-formulated and dosed together in the same formulation as a single injection at t=0. The mice were dosed either by intravenous (i.v.) or subcutaneous (s.c.) injection of SCE and peptide. For the i.v. doses, the compounds were injected into the tail vein of the mice. For the s.c. doses, the compounds were injected in the subcutaneous space on the back of the mouse between the shoulder blades. At the indicated harvest times (measured from t=0 when the siRNA was dosed, regardless of when the peptide was dosed), the animals were sacrificed and 3 mm liver punches were collected, preserved in RNAlater (Ambion), and stored at 4° C. Separate 5 mm liver punches were collected, placed in 96-well plates, frozen on dry ice, and stored at −80° C. until use.
The 3 mm liver punches were removed from RNAlater and homogenized in Trizol (Invitrogen) using a bead mill tissue lyser (Qiagen); disruption was performed for two 5-minute cycles at 30 Hz. RNA extraction was performed using 1-bromo-2-chloropropane (Acros Organics) and total RNA was isolated from the aqueous phase using the MagMax RNA isolation method (Ambion). […] TaqMan qPCR analysis was performed with an ABI 7900 Real-Time PCR System using TaqMan Fast Advanced Master Mix (Applied Biosystems). All TaqMan probes and primers for CTNNB1 and PPIB (housekeeping gene) were purchased from Applied Biosystems as pre-validated gene expression assays. Results are calculated by the comparative Ct method, where the difference between the CTNNB1 Ct value and the PPIB Ct value (ΔCt) is calculated and then further normalized relative to the PBS control by taking a second difference (ΔΔCt), as described previously (1).

[2] = Lethality observed on in vivo dosing in mice; design: key: *: lethal at this dose
Protocol: as §1

[3] = tested on: CTNNB1; experiment: In vitro DMD assay: mRNA silencing enhancement by peptide conjugates after siRNA-IV treatment; format: cell-based; conditions: primary mouse hepatocytes, siRNA-IV 125 nM baseline
Procedure, shortened: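 RT-qPCR read-out, PPIB-normalized (dddCt), gave silencing enhancement versus 125 nM siRNA-IV alone and untreated cells. Beforehand, cultured primary mouse hepatocytes received siRNA-IV for 1 h, then graded peptide-conjugate doses for ~16 h, followed by washout and a further 24 h incubation.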

[4] = siRNA metabolic stability (order stated for FIG. 6); conditions: order siRNA-I>siRNA-V>siRNA-VI
[5] = TGN-L-siRNA-III 0.5 mg/kg IV, peptide 2 mg/kg IV 15 min after siRNA
[6] = TGN-L-siRNA-III 0.5 mg/kg IV, peptide 10 mg/kg IV 15 min after siRNA
[7] = TGN-L-siRNA-III 0.5 mg/kg IV, peptide 25 mg/kg IV 15 min after siRNA
[8] = TGN-L-siRNA-III 0.25 mg/kg IV, peptide 10 mg/kg IV 15 min after siRNA
[9] = TGN-L-siRNA-III 0.25 mg/kg IV, peptide 50 mg/kg IV 15 min after siRNA
[10] = TGN-L-siRNA-III 0.25 mg/kg IV, peptide 2 mg/kg IV 15 min after siRNA

In the case of “TGN-S-S-SEQ ID NO: 1248 (D) (C[dF][dL][dE][dE][dL][dW][dE][dL][dL][dE][dH][dL][dL]; not fully specified (residue 1); listed as Homo sapiens)”, the “In vivo mRNA knockdown” value [1, 5] was 42%, the “In vivo mRNA knockdown” value [1, 6] was 74% and the “In vivo mRNA knockdown” value [1, 7] was 58%. The “Lethality mark at targeted peptide dose” value [2, 7] was 25*.
For “TGN-S-S-SEQ ID NO: 1419 (D) (C[dF][dL][dE][dE][dL][dW]G[dL][dL][dE][dH][dL][dL]; not fully specified (residue 1); listed as Homo sapiens)”, the “In vivo mRNA knockdown” value [1, 5] was 43%, the “In vivo mRNA knockdown” value [1, 6] was 78% and the “In vivo mRNA knockdown” value [1, 7] was 76%. For the same substance, the “Lethality mark at targeted peptide dose” value [2, 7] was 25*.
With “TGN-S-S-SEQ ID NO: 1653 (D) ([dC]G[dL][dF]G[dE][dI][dA][dE][dL][dI][dW][dE]G[dL][dE][dN][dL][dI][dD][dW]G[dN]G; not fully specified (residue 1); also: TGN attached via disulfide; listed as Homo sapiens)” the “In vivo mRNA knockdown” value [1, 8] was 63%, the “In vivo mRNA knockdown” value [1, 9] was 69% and the “In vitro dddCt (vs. baseline SCE dose)” value ([3]; Targeted peptide dose 25 nM) was −0.76. For the same substance, the “In vitro dddCt (vs. baseline SCE dose)” value ([3]; Targeted peptide dose 15625 nM) was −2.13.
With “TGN-S-S-SEQ ID NO: 1654 (D) (CG[dL][dL][dE][dE][dI][dE][dE][dL][dL][dE][dE]G[dL][dE][dN][dL][dI][dD][dW]G[dN][dS]; not fully specified (residue 1); listed as Homo sapiens)” the “In vivo mRNA knockdown” value [1, 10] was 51%, the “In vivo mRNA knockdown” value [1, 8] was 72% and the “In vivo mRNA knockdown” value [1, 9] was 65%. The “Lethality mark at targeted peptide dose” value [2, 9] was 50*, the “In vitro dddCt (vs. baseline SCE dose)” value ([3]; Targeted peptide dose 25 nM) was −0.39 and the “In vitro dddCt (vs. baseline SCE dose)” value ([3]; Targeted peptide dose 125 nM) was −1.05. For the same substance, the “In vitro dddCt (vs. baseline SCE dose)” value ([3]; Targeted peptide dose 3125 nM) was −1.48 and the “In vitro dddCt (vs. baseline SCE dose)” value ([3]; Targeted peptide dose 15625 nM) was −1.61.
In the case of “TGN-S-S-SEQ ID NO: 1712 (L): TGN-S-S-peptide; peptide CFLGALWKALSELLKNLIDWWNG (C(TGN)FLGALWKALSELLKNLIDWWNG; reading uncertain; also: TGN disulfide conjugate at Cys1; listed as Homo sapiens)”, the “In vivo mRNA knockdown” value ([1]; TGN-L-siRNA-III 0.5 mg/kg IV, peptide 5 mg/kg IV 15 min after siRNA) was 34%, the “In vitro dddCt (vs. baseline SCE dose)” value ([3]; Targeted peptide dose 8 nM) was 0.03 and the “In vitro dddCt (vs. baseline SCE dose)” value ([3]; Targeted peptide dose 40 nM) was 0.07. For the same substance, the “In vitro dddCt (vs. baseline SCE dose)” value ([3]; Targeted peptide dose 200 nM) was −0.08, the “In vitro dddCt (vs. baseline SCE dose)” value ([3]; Targeted peptide dose 1000 nM) was 0 and the “In vitro dddCt (vs. baseline SCE dose)” value ([3]; Targeted peptide dose 5000 nM) was −0.2.
In the case of “TGN-S-S-SEQ ID NO: 1713 (L) (C(TGN)GLRHGELEELSHEEGLENLIDWWNG; reading uncertain; also: TGN disulfide conjugate at Cys1; listed as Homo sapiens)”, the “In vivo mRNA knockdown” value [1, 10] was 0%, the “In vivo mRNA knockdown” value [1, 8] was 2% and the “In vitro dddCt (vs. baseline SCE dose)” value ([3]; Targeted peptide dose 8 nM) was 0.21. For the same substance, the “In vitro dddCt (vs. baseline SCE dose)” value ([3]; Targeted peptide dose 40 nM) was 0.21, the “In vitro dddCt (vs. baseline SCE dose)” value ([3]; Targeted peptide dose 200 nM) was 0.15 and the “In vitro dddCt (vs. baseline SCE dose)” value ([3]; Targeted peptide dose 1000 nM) was −0.04. The “In vitro dddCt (vs. baseline SCE dose)” value ([3]; Targeted peptide dose 5000 nM) was 0.
With “TGN-S-S-SEQ ID NO: 1740 (L): TGN-S-S-peptide; peptide GLFEAIEGFIENGWEGLAELAEALEALAAGGSC (GLFEAIEGFIENGWEGLAELAEALEALAAGGSC(TGN); reading uncertain; also: TGN linked to Cys via disulfide, TGN not defined; listed as Homo sapiens)” the “In vivo mRNA knockdown” value ([1]; TGN-L-siRNA-II 0.25 mg/kg IV, peptide 3 mg/kg IV 15 min after siRNA) was 20%, the “In vitro dddCt (vs. baseline SCE dose)” value ([3]; Targeted peptide dose 8 nM) was 0 and the “In vitro dddCt (vs. baseline SCE dose)” value ([3]; Targeted peptide dose 40 nM) was 0.13. The “In vitro dddCt (vs. baseline SCE dose)” value ([3]; Targeted peptide dose 200 nM) was −0.07, the “In vitro dddCt (vs. baseline SCE dose)” value ([3]; Targeted peptide dose 1000 nM) was −0.06 and the “In vitro dddCt (vs. baseline SCE dose)” value ([3]; Targeted peptide dose 5000 nM) was −0.06.
With “TGN-S-S-SEQ ID NO: 1746 (D): TGN-S-S-peptide; peptide CEALFGKINAIFIGKL ([dC][dE][dA][dL][dF]G[dK][dI][dN][dA][dI][dF][dI]G[dK][dL]; not fully specified (residue 1); also: disulfide to TGN peptide via Cys1; listed as Homo sapiens)” the “In vivo mRNA knockdown” value [1, 5] was 31%, the “In vivo mRNA knockdown” value [1, 6] was 25% and the “In vitro dddCt (vs. baseline SCE dose)” value ([3]; Targeted peptide dose 8 nM) was −0.01. For the same substance, the “In vitro dddCt (vs. baseline SCE dose)” value ([3]; Targeted peptide dose 40 nM) was −0.09, the “In vitro dddCt (vs. baseline SCE dose)” value ([3]; Targeted peptide dose 200 nM) was −0.07 and the “In vitro dddCt (vs. baseline SCE dose)” value ([3]; Targeted peptide dose 1000 nM) was −0.09. The “In vitro dddCt (vs. baseline SCE dose)” value ([3]; Targeted peptide dose 5000 nM) was −0.04.
For “siRNA-I: CTNNB1 siRNA; passenger SEQ ID NO 1803, guide SEQ ID NO 1804 (sense CUGUUGGAUUGAUUCGAAAUU; guide UUUCGAAUCAAUCCAACAGUU; (1)..(1) aminohexyl phosphate inverted abasic cap; (1)..(2) 2′-O-methyl; (3)..(3) 2′-deoxy-2′-fluoro; (4)..(5) 2′-O-methyl; (6)..(8) 2′-deoxy-2′-fluoro; (9)..(10) 2′-O-methyl; (11)..(12) 2′-deoxy-2′-fluoro; (13)..(15) 2′-O-methyl; (16)..(19) 2′-deoxy-2′-fluoro; (20)..(21) 2′-O-methyl; (20)..(21) phosphorothioate internucleotide linkage; (21)..(21) inverted abasic cap; (1)..(1) 2′-O-methyl; (1)..(2) phosphorothioate internucleotide linkage; (2)..(2) 2′-deoxy-2′-fluoro; (2)..(3) phosphorothioate internucleotide linkage; (3)..(3) 2′-O-methyl; (3)..(4) phosphorothioate internucleotide linkage)”, the “siRNA (metabolic) stability” value [4] was “highly stable” and the “Effect of timing of peptide dose on activity, FIG. 6” value ([1]; peptide within 2 hr before up to 24 hr after siRNA dose) was “does not significantly change the activity”.
With “siRNA-V: CTNNB1 siRNA; passenger SEQ ID NO 1803, guide SEQ ID NO 1808 (sense {NH2C6-invAb}-mCmUfGmUmUfGfGfAmUmUfGfAmUmUmCfGfAfAfAmU*mU[invAb]; guide mUfUmUfCmGfAmAfUmCfAmAfUmCfCmAfAmCfAmGmU*mU)” the “siRNA (metabolic) stability” value [4] was “moderately stable”, the “Activity, FIG. 6” value ([1]; longer separation times (4-24 hr post-siRNA dose)) was “background levels” and the “Activity (KD), FIG. 6” value ([1]; peptide dose times within 2 hr (before or after) the siRNA) was about 25%.
For “siRNA-VI: CTNNB1 siRNA; passenger SEQ ID NO 1803, guide SEQ ID NO 1809 (sense {NH2C6-invAb}-mCmUfGmUmUfGfGfAmUmUfGfAmUmUmCfGfAfAfAmU*mU[invAb]; guide fUfUfUmCfGfAfAmUmCfAfAmUmCfCfAfAmCfAfGmU*mU)”, the “siRNA (metabolic) stability” value [4] was “more unstable” and the “Activity, FIG. 6” value ([1]; DMD with peptide, more unstable siRNA) was “background levels”.
